The target in the assay is T1, topoisomerase I (Homo sapiens, UniProt P11387).
T1 construct: gene TOP1
T1 sequence (P11387 2-765): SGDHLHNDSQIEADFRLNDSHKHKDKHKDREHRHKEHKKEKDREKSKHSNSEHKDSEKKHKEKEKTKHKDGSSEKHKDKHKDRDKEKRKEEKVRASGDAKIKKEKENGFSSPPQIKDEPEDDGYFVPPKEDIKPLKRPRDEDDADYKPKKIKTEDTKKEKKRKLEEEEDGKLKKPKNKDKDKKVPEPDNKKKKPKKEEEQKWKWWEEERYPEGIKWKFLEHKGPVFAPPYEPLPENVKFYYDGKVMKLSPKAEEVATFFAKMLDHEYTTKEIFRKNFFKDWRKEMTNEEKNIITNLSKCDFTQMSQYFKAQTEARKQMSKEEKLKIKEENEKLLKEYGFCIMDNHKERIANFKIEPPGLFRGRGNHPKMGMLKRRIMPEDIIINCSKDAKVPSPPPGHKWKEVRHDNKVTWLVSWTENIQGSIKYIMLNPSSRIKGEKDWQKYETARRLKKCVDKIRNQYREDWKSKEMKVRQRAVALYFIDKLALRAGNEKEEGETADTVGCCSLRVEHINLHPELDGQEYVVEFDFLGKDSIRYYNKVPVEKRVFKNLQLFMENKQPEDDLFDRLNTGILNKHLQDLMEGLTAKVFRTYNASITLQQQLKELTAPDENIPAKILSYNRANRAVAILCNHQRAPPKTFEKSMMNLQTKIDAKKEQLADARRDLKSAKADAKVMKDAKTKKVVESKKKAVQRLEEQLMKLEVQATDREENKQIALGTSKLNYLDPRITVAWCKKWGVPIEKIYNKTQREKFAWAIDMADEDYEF
The experiment in a line: plasmid DNA relaxation assay (supercoiled pBR322, agarose gel) with commercial human topoisomerase I. The format is biochemical.

As to `O=c1[nH]c(-c2ccc(O)cc2)nc2c1Cc1c(ccc3ccccc13)O2` [CPO, chromenopyrimidinone], the EC50 turned out to be 3.6 µM.

By EC50 is commonly meant the concentration that produces a half-maximal response. Read a low EC50 as higher potency in that assay.

(Values after PMC7281429, “Chromenopyrimidinone Controls Stemness and Malignancy by suppressing CD133 Expression in Hepatocellular Carcinoma” (Cancers, 2020).)
